The test system of test [1] is cGAS activity in THP1 cells (IFNb as marker). In words: Cellular assay to measure cGAS activity (IFNb production in PMA-differentiated THP1 cells stimulated by RDG-Adenovirus-GFP). In kind it is cell-based, human. To be noted: PMA differentiated, RDG-Adenovirus-GFP 1000 MOI, IFNb AlphaLISA, overnight incubation, read-out: IC50 (μM), Cellular assay for Compounds 95-348. The procedure: Cellular assay to measure cGAS activity: Use THP1 cell line from ATCC to determine inhibition of cGAS activity by test compounds in human cells. Plate cells on 96-well plates at 0.2×10^6/well and differentiate with phorbol myristate acetate (PMA) at 37° C./5% CO2. After 24 hours, replace PMA containing media with media lacking PMA and further incubate overnight. Stimulate cells were then by RDG-Adenovirus-GFP (Vector Biolabs #1768) at 1000 MOI for 4 hours prior to the addition of test compounds. After overnight incubation, transfer 10 μL of the media from each well to a new plate for IFNb analysis as a marker for cGAS activity. Measure quantification of IFNb with an IFNb AlphaLISA Detection kit (Perkin Elmer AL3133F) by mixing the acceptor beads with the cell supernatant followed by the addition of the biotinylated antibody and donor beads. Measure the relative fluorescence signal produced from the interaction of the donor and acceptor beads by a PHERAStar AlphaLISA protocol and evaluate the inhibitory effect of a compound by plotting specific inhibition of IFNb production against log concentration of the test compound. Calculate IC50 values using a 4-parameter non-linear logistic equation (y=(S0+((SInf−S0)/(1+((qAC50/x)^nHill))))).
On the technique in general: Alpha assays give light when donor and acceptor beads are brought close together.

In test [2] the target is recombinant human cGAS (Homo sapiens (Human), UniProt Q8N884). Nature of the test: In vitro inhibition assay of cGAS activity (cGAMP production, RapidFire mass spectrometry). In kind it is biochemical. To be noted: 10 nM recombinant human cGAS, 60 nM 75-bp dsDNA, ATP, GTP, room temperature 3 hours, read-out: IC50 (μM), In vitro inhibition assay for Compounds 95-348. The method, boiled down: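 Product cGAMP was quantified by RapidFire MS against a difluoro-cGAMP internal standard after a formic acid quench. The reaction contained 10 nM recombinant full-length human cGAS, 75-bp dsDNA (60 nM), ATP and GTP (50 μM) and ran for 3 h at room temperature. IC50 values came from 4-parameter nonlinear regression.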

Where [3] appears, read: Homo sapiens, THP-1, THP1 cells.

Structures can show the parent of a compound that is named as a salt. Where two headings read alike, the source gives them in different places.

Sequence of recombinant human cGAS (Q8N884 whole entry): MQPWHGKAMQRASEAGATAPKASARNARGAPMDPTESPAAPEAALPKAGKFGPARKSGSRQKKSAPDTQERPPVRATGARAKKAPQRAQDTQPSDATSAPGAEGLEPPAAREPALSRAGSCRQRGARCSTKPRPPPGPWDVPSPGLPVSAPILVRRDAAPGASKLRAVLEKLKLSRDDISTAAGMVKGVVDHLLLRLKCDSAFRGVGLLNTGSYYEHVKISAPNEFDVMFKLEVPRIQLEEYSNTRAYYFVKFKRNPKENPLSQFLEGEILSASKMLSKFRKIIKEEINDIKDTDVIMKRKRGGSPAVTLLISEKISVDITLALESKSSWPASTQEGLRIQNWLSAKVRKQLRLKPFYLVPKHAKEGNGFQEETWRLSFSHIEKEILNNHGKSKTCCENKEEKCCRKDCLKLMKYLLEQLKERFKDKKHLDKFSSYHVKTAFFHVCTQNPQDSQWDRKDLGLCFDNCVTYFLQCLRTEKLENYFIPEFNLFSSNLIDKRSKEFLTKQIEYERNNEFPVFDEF

What is called IC50 is the concentration that gives 50% inhibition. Consider `O[C@H]1CC[C@@H](Oc2cc(Cl)c(Cl)c3[nH]cc(-c4cn[nH]c4)c23)C1` (racemic) [Example 100, Cis-3-((6,7-Dichloro-3-(1H-pyrazol-4-yl)-1H-indol-4-yl)oxy)cyclopentan-1-ol (racemic mixture)], for which the figures for the IC50 in test [1] (setting [3]) and in test [2] were greater than 10 µM and 0.0356 µM, respectively.

Regarding `OC[C@@H]1C[C@@H]1Oc1cc(Cl)c(Cl)c2[nH]cc(-c3cn[nH]c3)c12` (racemic) [Example 137, Cis-[2-[[6,7-Dichloro-3-(1H-pyrazol-4-yl)-1H-indol-4-yl]oxy]cyclopropyl]methanol hydrochloride], the IC50 in test [1] (setting [3]) worked out at 1.38 µM; in test [2] it was 0.0165 µM.

With `O[C@H]1CC[C@H](Nc2cc(Cl)c(Cl)c3[nH]cc(-c4cn[nH]c4)c23)C1` (racemic) [Example 209, trans-3-[[6,7-Dichloro-3-(1H-pyrazol-4-yl)-1H-indol-4-yl]amino]cyclopentanol (racemic mixture)], the IC50 in test [1] (setting [3]) is 0.351 µM; in test [2] it was 0.0158 µM.

Take `O[C@@H]1C[C@H](Oc2cc(Cl)c(Cl)c3[nH]cc(-c4cn[nH]c4)c23)[C@@H](O)C1` (racemic) [Example 220, 4-[[6,7-Dichloro-3-(1H-pyrazol-4-yl)-1H-indol-4-yl]oxy]cyclopentane-1,3-diol (racemic mixture)]: the IC50 in test [1] (setting [3]) came to 0.556 µM; in test [2] it was 0.0301 µM.

On to `O=C(CO)NC1Cc2c(-c3cn[nH]c3)c3ccc(Cl)c(Cl)c3n2C1` (single isomer, unassigned) [Example 247, N-(5,6-Dichloro-9-(1H-pyrazol-4-yl)-2,3-dihydro-1H-pyrrolo[1,2-a]indol-2-yl)-2-hydroxyacetamide], for which the figures for the IC50 in test [1] (THP1 cells) and in test [2] were 2.73 µM and 0.0146 µM, respectively.

For the molecule `O=C(CO)NC1Cc2c(-c3cn[nH]c3)c3ccc(Cl)c(Cl)c3n2C1` (single isomer, unassigned) [Example 248, N-(5,6-Dichloro-9-(1H-pyrazol-4-yl)-2,3-dihydro-1H-pyrrolo[1,2-a]indol-2-yl)-2-hydroxyacetamide], the IC50 in test [1] (THP1 cells) was greater than 10 µM; in test [2], 0.0396 µM.

`O=C1NCC(C(=O)N2CCn3c(c(-c4cn[nH]c4)c4ccc(Cl)c(Cl)c43)C2)O1` (single isomer, unassigned) [Example 259, 5-[6,7-Dichloro-10-(1H-pyrazol-4-yl)-3,4-dihydro-1H-pyrazino[1,2-a]indole-2-carbonyl]oxazolidin-2-one]: the IC50 in test [1] (THP1 cells) came out at 0.765 µM; in test [2], 0.0373 µM.

With `O=C1NCC(C(=O)N2CCn3c(c(-c4cn[nH]c4)c4ccc(Cl)c(Cl)c43)C2)O1` (single isomer, unassigned) [Example 260, 5-[6,7-Dichloro-10-(1H-pyrazol-4-yl)-3,4-dihydro-1H-pyrazino[1,2-a]indole-2-carbonyl]oxazolidin-2-one], the IC50 came to 4.05 µM in test [1] (THP1 cells) and 0.0115 µM in test [2].

As for `OCC(O)CNc1cc(Cl)c(Cl)c2[nH]cc(-c3cn[nH]c3)c12` (single isomer, unassigned) [Example 261, 3-[[6,7-Dichloro-3-(1H-pyrazol-4-yl)-1H-indol-4-yl]amino]propane-1,2-diol], the concentration for half-maximal inhibition (IC50) in test [1] (setting [3]) was determined as 2.34 µM; in test [2], 0.0452 µM.

In the case of `OCC(O)CNc1cc(Cl)c(Cl)c2[nH]cc(-c3cn[nH]c3)c12` (single isomer, unassigned) [Example 262, 3-[[6,7-Dichloro-3-(1H-pyrazol-4-yl)-1H-indol-4-yl]amino]propane-1,2-diol], the IC50 in test [1] (THP1 cells) is 3.62 µM; in test [2] it was 0.0772 µM.

As for `CC(=O)N1CCOC(CC(=O)N2CCn3c(c(-c4cn[nH]c4)c4ccc(Cl)c(Cl)c43)C2)C1` (single isomer, unassigned) [Example 264, 2-(4-acetylmorpholin-2-yl)-1-(6,7-dichloro-10-(1H-pyrazol-4-yl)-3,4-dihydropyrazino[1,2-a]indol-2(1H)-yl)ethan-1-one], the results for the IC50 in test [1] (setting [3]) and in test [2] were greater than 10 µM and 0.0462 µM, respectively.

`CC(=O)N1CCOC(CC(=O)N2CCn3c(c(-c4cn[nH]c4)c4ccc(Cl)c(Cl)c43)C2)C1` (single isomer, unassigned) [Example 265, 2-(4-acetylmorpholin-2-yl)-1-(6,7-dichloro-10-(1H-pyrazol-4-yl)-3,4-dihydropyrazino[1,2-a]indol-2(1H)-yl)ethan-1-one]: the values for the IC50 in test [1] (THP1 cells) and in test [2] were greater than 10 µM and 0.0511 µM, respectively.

Take `O[C@@H]1C[C@H](Oc2cc(Cl)c(Cl)c3[nH]cc(-c4cn[nH]c4)c23)[C@@H](O)C1` (single isomer, unassigned) [Example 270, 4-[[6,7-Dichloro-3-(1H-pyrazol-4-yl)-1H-indol-4-yl]oxy]cyclopentane-1,3-diol]: the figures for the IC50 in test [1] (THP1 cells) and in test [2] were 0.635 µM and 0.0207 µM, respectively.

With `O[C@@H]1C[C@H](Oc2cc(Cl)c(Cl)c3[nH]cc(-c4cn[nH]c4)c23)[C@@H](O)C1` (single isomer, unassigned) [Example 271, 4-[[6,7-Dichloro-3-(1H-pyrazol-4-yl)-1H-indol-4-yl]oxy]cyclopentane-1,3-diol], the IC50 in test [1] (THP1 cells) amounted to 6.75 µM; in test [2], 0.184 µM.

In the case of `O=C(CO)NC1CCn2c1c(-c1cn[nH]c1)c1ccc(Cl)c(Cl)c12` (single isomer, unassigned) [Example 345, N-(5,6-Dichloro-9-(1H-pyrazol-4-yl)-2,3-dihydro-1H-pyrrolo[1,2-a]indol-1-yl)-2-hydroxyacetamide], the IC50 in test [1] (THP1 cells) was 3.97 µM; in test [2] it was 0.0628 µM.

For the molecule `O=C(CO)NC1CCn2c1c(-c1cn[nH]c1)c1ccc(Cl)c(Cl)c12` (single isomer, unassigned) [Example 346, N-(5,6-Dichloro-9-(1H-pyrazol-4-yl)-2,3-dihydro-1H-pyrrolo[1,2-a]indol-1-yl)-2-hydroxyacetamide], the IC50 in test [1] (THP1 cells) amounted to 0.914 µM; in test [2], 0.00769 µM.

Turning to `OCCC1CCn2c1c(-c1cn[nH]c1)c1ccc(Cl)c(Cl)c12` (single isomer, unassigned; isomer 1) [Example 242, 2-(5,6-Dichloro-9-(1H-pyrazol-4-yl)-2,3-dihydro-1H-pyrrolo[1,2-a]indol-1-yl)ethan-1-ol isomer 1], the values for the IC50 in test [1] (setting [3]) and in test [2] were greater than 10 µM and 0.464 µM, respectively.

With `O[C@H]1CC[C@@H](Nc2cc(Cl)c(Cl)c3[nH]cc(-c4cn[nH]c4)c23)C1` (single isomer, unassigned; isomer 2) [Example 210, Cis-3-[[6,7-Dichloro-3-(1H-pyrazol-4-yl)-1H-indol-4-yl]amino]cyclopentanol, isomer 2], the IC50 in test [1] (setting [3]) came out at 2.17 µM; in test [2], 0.0365 µM.

Turning to `OCCC1CCn2c1c(-c1cn[nH]c1)c1ccc(Cl)c(Cl)c12` (single isomer, unassigned; isomer 2) [Example 243, 2-(5,6-Dichloro-9-(1H-pyrazol-4-yl)-2,3-dihydro-1H-pyrrolo[1,2-a]indol-1-yl)ethan-1-ol isomer 2], the IC50 worked out at 9.35 µM in test [1] (THP1 cells) and 0.0472 µM in test [2].

For the molecule `Cn1ncnc1COCC(=O)N1CCn2c(c(-c3cn[nH]c3)c3c(OCC#N)cc(Cl)c(Cl)c32)C1` [Example 181], the IC50 in test [1] (setting [3]) is greater than 10 µM.

With `OCCn1cc(-n2cc(-c3cn[nH]c3)c3ccc(Cl)cc32)nn1` [Example 229], the IC50 in test [1] (setting [3]) came out at 2.1 µM.

Turning to `NC1CCn2c1c(-c1cn[nH]c1)c1ccc(Cl)c(Cl)c12` (centres unmarked) [Example 241, 5,6-Dichloro-9-(1H-pyrazol-4-yl)-2,3-dihydro-1H-pyrrolo[1,2-a]indol-1-amine], the 50% inhibitory concentration (IC50) in test [1] (setting [3]) was greater than 10 µM.
